US8388960B2, “Elimination of heterogeneous or mixed cell population in tumors” (priority 2005, dated 2013)

Experiments:
[1] = Thiol-disulfide interchange of DM4 in RPMI 1640 medium; conditions: buffer
Protocol: To further test whether any of the metabolites in the media was a disulfide compound, a cell supernatant sample from a 26-hour exposure was divided into two equal portions of which one was subjected directly to chromatography, and the other portion was treated with DTT and selenol before chromatography to reduce all disulfide bonds (18).

[2] = tested on: COLO 205 cells; assay: Cell cycle studies (G2/M arrest, DNA content by FACS) in COLO 205 cells; assay type: cell-based, human
Protocol: Exponentially growing COLO 205 cells were resuspended at 1-2×10^5 cells/mL before drug or conjugate treatment. […] DNA content analysis was performed using FACSCalibur (Becton Dickinson, San Jose, Calif.). 10,000 events per sample were collected, and FL2-A histograms generated for each sample. The cell cycle analysis software, ModFit LT 3.1 (Verity Software House, Topsham, Me.) was used to determine the percentage of cells in different phases of the cell cycle.
Samples of asynchronously growing cells were exposed to conjugate (3 nM), or DM1-SMe (10 nM see FIG. 16 for structure), or nocodazole (0.66 μM) another inhibitor of microtubule polymerization, at 37° C. for 20 h and the DNA content of the cells was then analyzed by flow cytometry.
COLO 205 cells were first synchronized with a 24-hr treatment of aphidicolin, a reversible DNA replication inhibitor that blocks cells in S phase (Ikegami S. et al., Nature, 275, 458-460 ((1978)). Since the majority of the asynchronous population of COLO 205 cells were in G1 phase, most of the aphidicolin-treated cells arrested in the beginning of S phase, which cannot be distinguished from G1 phase in the FACS analysis (FIG. 11B, top picture). The synchronized cells were then released from the arrest by the removal of aphidicolin, and either left untreated, or treated with DM1-SMe or with either conjugate.

[3] = tested on: antigen-positive COLO 205 cells; assay: MTT-based cytotoxicity assay, COLO 205 cells (Example 2); assay type: cell-based, human; conditions: conjugates 4-day exposure
Protocol: (§1) The anti-tumor activity of the two conjugates was assessed in SCID mice bearing subcutaneous HT-29 or COLO 205 tumors (both CanAg-positive human colon adenocarcinoma).
(§2) The two major metabolites, S-methyl-DM4 and lysine-N^ε—SMCC-DM1, were synthesized and tested for their in vitro cytotoxicity against COLO 205 cells and Namalwa cells.

[4] = tested on: antigen-negative Namalwa cells; assay: MTT-based cytotoxicity assay, Namalwa cells (Example 2); assay type: cell-based, human; conditions: free maytansinoids
Protocol: as §1, §2

[5] = single intravenous dose of 12.5 μg/kg; cited from earlier work

COc1cc2cc(c1Cl)N(C)C(=O)CC(OC(=O)C(C)N(C)C(=O)CCC(C)(C)S)C1(C)OC1C(C)C1CC(O)(NC(=O)O1)C(OC)/C=C/C=C(\C)C2 (stereo not drawn) [DM4, N^2′-deacetyl-N-^2′(4-methyl-4-mercapto-1-oxopentyl)-maytansine]
half-life [1]: < 1 h

COc1cc2cc(c1Cl)N(C)C(=O)C[C@H](OC(=O)[C@H](C)N(C)C(=O)CCSSC)[C@]1(C)O[C@H]1[C@H](C)[C@@H]1C[C@@](O)(NC(=O)O1)[C@H](OC)/C=C/C=C(\C)C2 [DM1-SMe, N^2′-deacetyl-N^2′-[(3-methyldithio)-1-oxopropyl]-maytansine]
cells in G2 in the presence of chloroquine ([2]; 20 h, 30 μM chloroquine, 10^−8 M DM1-SMe, 3×10^−9 M huC242-SMCC-DM1): 51%
cells in G2/M phase after release from aphidicolin ([2]; synchronized cells, after 10 h and after 18 h): 75% to 85%

COc1cc2cc(c1Cl)N(C)C(=O)C[C@H](OC(=O)[C@H](C)N(C)C(C)=O)[C@]1(C)O[C@H]1[C@H](C)[C@@H]1C[C@@](O)(NC(=O)O1)[C@H](OC)/C=C/C=C(\C)C2 [maytansine, reference compound]
IC50 ([3]; Homo sapiens, COLO 205, 96 h): 0.03 to 0.06 nM
IC50 ([4]; Homo sapiens): 0.03 to 0.06 nM

CO/C1=C\C(C)=C\[C@@H](C)[C@@H](O)[C@@H](C)C/C(C)=C/C=C/[C@H](OC)[C@@H]([C@@H](C)[C@@H](O)[C@H](C)[C@@]2(O)C[C@@H](O)[C@H](C)[C@@H](C(C)C)O2)OC1=O [BafA1, Bafilomycin A1, reference compound]
distribution of cells between the phases of the cell cycle ([2]; BafA1 alone): did not significantly alter the distribution of cells

COc1c(O)c2c(c3cc(C(=O)N4CCc5c4c(O)c(OC)c4[nH]c(C(=O)N6CC7CC78C6=CC(=O)c6[nH]cc(C)c68)cc54)[nH]c13)CCN2C(N)=O (stereo not drawn) [CC-1065]
toxicity after administration to mice [5]: delayed hepatotoxicity leading to mortality on day 50

COc1cc2cc(c1Cl)N(C)C(=O)C[C@H](OC(=O)[C@H](C)N(C)C(=O)CCC(C)(C)SC)[C@]1(C)O[C@H]1[C@H](C)[C@@H]1C[C@@](O)(NC(=O)O1)[C@H](OC)/C=C/C=C(\C)C2 [S-methyl-DM4, N^2′-deacetyl-N^2′-(4-methylthio-4-methyl-1-oxopentyl)-maytansine]
IC50 [3]: 0.002 nM
IC50 [4]: 0.002 nM
